Assay results as given in US6680311B1, “Cryptophycin compounds” (Eli Lilly and Company, priority 1996, dated 2004).
Counter-ions that a name gives are not always drawn.

What was measured:
Type in all cases: physicochemical
[1] = Stability in parenteral formulation; conditions: formulation 6 of Table 4, up to 3 weeks, preliminary
[2] = Solubility in excipient / parenteral vehicles; conditions: Propylene Glycol 15 % v/v, Polyethylele Glycol 3000 20 % v/v, volume adjusted 0.05 M acetate buffer
[3] = Aqueous solubility and stability at pH 4-8
Description: A comparison of stability characteristics between 1 and 12 in aqueous Ph ranging from 4-8 was determined at room temperature for 6 hours.

Question: Which “stability in formulation 6” value [1] does the source give for `COc1ccc(C[C@H]2NC(=O)/C=C/C[C@@H]([C@H](C)[C@@H](OC(=O)CN)[C@@H](Cl)c3ccccc3)OC(=O)[C@H](CC(C)C)OC(=O)C(C)(C)CNC2=O)cc1Cl` [Compound 12, Cryptophycin 55 Glycinate Hydrochloride Salt] here?
Answer: The value was “acceptable stability”.

Question: And the “Comparative solubility, vehicle 2” value [2]?
Answer: Its value is >2000 µg/mL.

Question: What about the “course of aqueous solubility over the pH range studied” value ([3]; aqueous pH 4-8, room temperature, 6 hours) of the same compound?
Answer: The value was “remained substantially steady”.

Question: What about the “stability in an aqueous environment” value ([3]; physiological pH range, over longer periods of time) of the same compound?
Answer: The value was “better stability”.
